Structures are written as SMILES. Converted amounts (≈) assume the structure as drawn.

Holding throughout (type): cell-based
One assay deals with Pa44 (ATCC27853). In words: MIC, broth microdilution (Example 5), Table 3. To be noted: Pseudomonas aeruginosa. The procedure: (§1) II. […] MIC90 values were defined as the concentration required to inhibit growth of 90% of the strains tested. • C. SAR was performed using the following isolates: Sa399 (ATCC43300, MRSA), Sa1721 (NARSA NRS384, MRSA USA 300), Pa44 (ATCC27853), and 4 clinical isolates (Pa2241, Pa2086 (mucoid strain), Pa2694 and Pa2698). • D. The in vitro antibacterial activity of the compound of formula (I) was further evaluated in an expanded MRSA and Pa MIC panel (see Table 4 and FIG. 6).
For orientation: Broth dilution looks for growth in wells or tubes with falling amounts of substance.

For assay [1], the system named is Sa1721 (NARSA NRS384, MRSA USA 300). Description: MIC, broth microdilution (Example 5), Table 3. The following applies: Staphylococcus aureus. The procedure: as §1
In a further assay the test system is Pa2694. In words: MIC, broth microdilution (Example 5), Table 3. To be noted: Pseudomonas aeruginosa. The procedure:
as §1

Another assay has as its system Pa2086 (mucoid strain). In words: MIC, broth microdilution (Example 5), Table 3. The following applies: Pseudomonas aeruginosa. On the procedure:
as §1

Another assay deals with Pa2698. In words: MIC, broth microdilution (Example 5), Table 3. To be noted: Pseudomonas aeruginosa. The procedure: as §1
The subject of the next assay is Pa2241. Description: MIC, broth microdilution (Example 5), Table 3. To be noted: Pseudomonas aeruginosa. The procedure:
as §1

The next assay concerns Sa399 (ATCC43300, MRSA). Description: MIC, broth microdilution (Example 5), Table 3. To be noted: Staphylococcus aureus. On the procedure: as §1
Assay [2] deals with methicillin-resistant Staphylococcus aureus (MRSA). Description: MIC measured by the method of Example 3. The following applies: strain not named, read-out: MIC against methicillin-resistant Staphylococcus aureus (MRSA). On the procedure: (§2) To prepare for MIC testing, individual colonies were isolated by streaking frozen glycerol material containing Staphylococcus or Pseudomonas spp. onto rich, non-selective, tryptic soy agar containing 5% sheep's blood (TSAB), and incubated at 37° C. for 18-24 hrs.
(§3) On the day of testing, primary cultures were started by scraping off 5-10 colonies from the TSAB plates. The material was suspended in ˜5 mL of cation adjusted Mueller Hinton Broth (CAMHB) in 14 mL culture tubes and incubated at 37° C. with aeration (200 rpm) for ˜2 hrs until the OD600 was ≧0.1.
(§4) Inoculum cultures were prepared by standardizing the primary cultures to OD600=0.1 and then adding 20 μL of the adjusted primary culture per 1 mL CAMHB for Pseudomonas and CAMHB plus 4% NaCl for MRSA so that the final inoculum density was ˜10^5 colony forming units per milliliter. Diluted inoculum cultures were used to inoculate 50 μL per well in 96 well broth microdilution assay plates. […]
(§5) Plates were incubated for 18-20 hours at 37° C. with aeration (200 rpm). Following incubation, growth was confirmed visually placing plates over a viewing apparatus (stand with a mirror underneath) and then OD600 was measured using a SpectraMax 340PC384 plate reader (Molecular Devices, Sunnyvale, Calif.). Growth was defined as turbidity that could be detected with the naked eye or achieving minimum OD600 of 0.1. […]

The subject of the next assay is Pseudomonas aeruginosa. Description: MIC measured by the method of Example 3. To be noted: strain not named, read-out: MIC against Pseudomonas aeruginosa. The procedure: as §2, §3, §4, §5
Assay [3] concerns Pseudomonas aeruginosa (n = 100). Description: MIC90, expanded MIC panel (Table 4). To be noted: 100 Pa strains. The procedure:
as §1

The test system of a further assay is MRSA (n = 21). In words: MIC90, expanded MIC panel (Table 4). The following applies: Staphylococcus aureus; 21 MRSA strains; read-out: MIC90 MRSA (n = 21). On the procedure:
as §1

Take `CO/N=C(\C(=O)N[C@@H]1C(=O)N2C(C(=O)[O-])=C(C[n+]3ccc(N)c(NC(=O)Nc4ccc(CCNC(=N)N)cc4)c3)CS[C@H]12)c1nc(N)sc1Cl` [(I)]: the MIC – broadly, the least concentration at which growth counts as inhibited – in the assay on Pa44 (ATCC27853) came to 2 mg/L (≈ 2.69 µM); in [1], 8 mg/L (≈ 10.8 µM); in the assay on Pa2694 it was 8 mg/L (≈ 10.8 µM); with Pa2086 (mucoid strain) it was 8 mg/L (≈ 10.8 µM); against Pa2698 it was 8 mg/L (≈ 10.8 µM); with Pa2241 it was 1 mg/L (≈ 1.35 µM). Besides, the minimal inhibitory concentration (MIC) with Sa399 (ATCC43300, MRSA) is 2 mg/L (≈ 2.69 µM); in assay [2] it was 1 to 2 mg/L (≈ 1.35 to 2.69 µM); in the assay with Pseudomonas aeruginosa it was 1 to 2 mg/L (≈ 1.35 to 2.69 µM). Also, the MIC90 (usually an inhibitory concentration at the 90% level, which refers to growth in some studies and to a panel of isolates in others) in assay [3] worked out at 8 mg/L (≈ 10.8 µM); with MRSA (n = 21) it was 2 mg/L (≈ 2.69 µM).
